Biological target: T1, IDO (IFNγ-treated Hela cells) (Homo sapiens, UniProt P14902)
T1 construct: endogenous in cells; host or cells: Hela cells treated with IFNγ (10 ng/ml)
Assay: IDO Kynurenine Assay with Hela Cells
Assay type: cell-based
Conditions: IFNγ 10 ng/ml, 20 hours incubation, kynurenine absorbance at 490 nm, read-out: Hela Cells LLE_IDO_ABS_DR (IC50)
Description: IDO Kynurenine Assay with Hela Cells
Hela cells were seeded at 30,000 cells per well in 40 ul RPMI/phenol red free media contains 10% FBS in a 384-well black wall clear bottom tissue culture plate (Matrix Technologies LLC). 270 nl of certain concentration of compound was then added to each well using ECHO liquid handling systems. 40 ul of IFNγ (R&D, 285-IF-100) at final concentration of 10 ng/ml was then added to column 2-24 with media to column 1 as control. The cells were incubated for 20 hours in 37° C. incubator with 5% CO2.
The compound treatments were stopped by adding trichloroacetic acid (Sigma-Aldrich) to a final concentration at 0.2%. The cell plate was further incubated at 50° C. for 30 minute. The equal volume supernatant (20 uL) and 0.2% (w/v) Ehrlich reagent (4-dimethylaminobenzaldehyde, Sigma-Aldrich) in glacial acetic acid were mixed in a new clear bottom 384-well plate. This plate was then incubated at room temperature for 30 minute. The absorbance at 490 nm was measured on Envision plate reader.
Compound IC50 values were calculated using the counts of no IFNγ control as one hundred percent inhibition, and counts of no compound but DMSO treatment as zero percent inhibition.

T1 sequence (P14902 whole entry): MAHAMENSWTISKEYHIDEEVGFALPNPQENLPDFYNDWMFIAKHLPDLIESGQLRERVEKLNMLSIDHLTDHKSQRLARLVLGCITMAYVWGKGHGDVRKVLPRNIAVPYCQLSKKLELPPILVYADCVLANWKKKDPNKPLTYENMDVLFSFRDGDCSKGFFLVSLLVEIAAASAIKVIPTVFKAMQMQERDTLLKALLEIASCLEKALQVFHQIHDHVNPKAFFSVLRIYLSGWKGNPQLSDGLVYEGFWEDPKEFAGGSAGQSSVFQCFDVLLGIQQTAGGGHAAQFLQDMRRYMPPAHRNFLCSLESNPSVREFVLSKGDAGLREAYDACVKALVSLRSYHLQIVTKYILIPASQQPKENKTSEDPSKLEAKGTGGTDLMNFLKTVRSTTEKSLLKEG

IC50 [nM]	SMILES
8.9	CC(C)CN(CC(C)C)c1ccc(-c2ccccc2-c2nnn[nH]2)cc1NC(=O)Cc1cccc(F)c1 [Example 16, N-(4-(diisobutylamino)-2′-(1H-tetrazol-5-yl)biphenyl-3-yl)-2-(3-fluorophenyl)acetamide]
4.42	CC(C)CN(CC(C)C)c1ccc(-c2ccccc2-c2nnn[nH]2)cc1NC(=O)Cc1ccc(Cl)cc1 [Example 17, 2-(4-chlorophenyl)-N-(4-(diisobutylamino)-2′-(1H-tetrazol-5-yl)biphenyl-3-yl)acetamide]
40	COc1ccc(CC(=O)Nc2cc(-c3ccccc3-c3nnn[nH]3)ccc2N(CC(C)C)CC(C)C)c(C(F)(F)F)c1 [Example 18, N-(4-(diisobutylamino)-2′-(1H-tetrazol-5-yl)biphenyl-3-yl)-2-(4-methoxy-2-(trifluoromethyl)phenyl)acetamide]
20	CC(C)CN(CC(C)C)c1ccc(-c2ccccc2-c2nnn[nH]2)cc1NC(=O)Cc1ccccc1F [Example 19, N-(4-(diisobutylamino)-2′-(1H-tetrazol-5-yl)biphenyl-3-yl)-2-(2-fluorophenyl)acetamide]
9.11	Cc1ccc(CC(=O)Nc2cc(-c3ccccc3-c3nnn[nH]3)ccc2N(CC(C)C)CC(C)C)c(F)c1 [Example 20, N-(4-(diisobutylamino)-2′-(1H-tetrazol-5-yl)biphenyl-3-yl)-2-(2-fluoro-4-methylphenyl)acetamide]
520	Cc1ccc(CC(=O)Nc2cc(-c3ccccc3-c3nnn[nH]3)ccc2N2C[C@H](C)C[C@H](C)C2)cc1 [Example 21, N-(4-(cis-3,5-Dimethylpiperidin-1-yl)-2′-(1H-tetrazol-5-yl)-[1,1′-biphenyl]-3-yl)-2-(p-tolyl)acetamide]
1190	C[C@@H]1C[C@H](C)CN(c2ccc(-c3ccccc3-c3nnn[nH]3)cc2NC(=O)Cc2ccc(F)cc2)C1 [Example 22, N-(4-(cis-3,5-Dimethylpiperidin-1-yl)-2′-(1H-tetrazol-5-yl)-[1,1′-biphenyl]-3-yl)-2-(4-fluorophenyl)acetamide]
280	CC(C)CN(CC(C)C)c1ccc(-c2ccccc2-c2nnn[nH]2)cc1NC(=O)CC#N [Example 23]
80	CC(C)CN(CC(C)C)c1ccc(-c2ccccc2-c2nnn[nH]2)cc1NC(=O)Cc1cccc2ccccc12 [Example 24]
20	CC(C)CN(CC(C)C)c1ccc(-c2ccccc2-c2nnn[nH]2)cc1NC(=O)Cc1ccccc1Cl [Example 25]
50	CC(C)CN(CC(C)C)c1ccc(-c2ccccc2-c2nnn[nH]2)cc1NC(=O)Cc1ccccc1C(F)(F)F [Example 26]
160	CC(C)CN(CC(C)C)c1ccc(-c2ccccc2-c2nnn[nH]2)cc1NC(=O)Cc1cccc(C(F)(F)F)c1 [Example 27]
90	CC(C)CN(CC(C)C)c1ccc(-c2ccccc2-c2nnn[nH]2)cc1NC(=O)Cc1ccc(O)cc1 [Example 28]
60	CC(C)CN(CC(C)C)c1ccc(-c2ccccc2-c2nnn[nH]2)cc1NC(=O)Cc1ccc(C(F)(F)F)cc1 [Example 29]
300	CC(C)CN(CC(C)C)c1ccc(-c2ccccc2-c2nnn[nH]2)cc1NC(=O)Cc1ccccn1 [Example 30]
70	CC(C)CN(CC(C)C)c1ccc(-c2ccccc2-c2nnn[nH]2)cc1NC(=O)Cc1cccnc1 [Example 31]

IC50 [nM]	SMILES
4010	CC(C)CN(CC(C)C)c1ccc(-c2ccccc2-c2nnn[nH]2)cc1NC(=O)CS(=O)(=O)c1ccccc1 [Example 32]
500	CC(C)CN(CC(C)C)c1ccc(-c2ccccc2-c2nnn[nH]2)cc1NC(=O)CC1CC1 [Example 33]
250	CC(C)CN(CC(C)C)c1ccc(-c2ccccc2-c2nnn[nH]2)cc1NC(=O)Cc1ccc(Oc2ccccc2)cc1 [Example 34]
270	CC(C)CN(CC(C)C)c1ccc(-c2ccccc2-c2nnn[nH]2)cc1NC(=O)CC(F)(F)F [Example 35]
400	Cc1nc(CC(=O)Nc2cc(-c3ccccc3-c3nnn[nH]3)ccc2N(CC(C)C)CC(C)C)cs1 [Example 36]
1280	Cc1noc(C)c1CC(=O)Nc1cc(-c2ccccc2-c2nnn[nH]2)ccc1N(CC(C)C)CC(C)C [Example 37]
2520	CC(C)CN(CC(C)C)c1ccc(-c2ccccc2-c2nnn[nH]2)cc1NC(=O)CN1CCOCC1 [Example 38]
50	CC(C)CN(CC(C)C)c1ccc(-c2ccccc2-c2nnn[nH]2)cc1NC(=O)Cc1cccc(F)c1F [Example 39]
160	Cc1ccc(OCC(=O)Nc2cc(-c3ccccc3-c3nnn[nH]3)ccc2N(CC(C)C)CC(C)C)cc1 [Example 40]
1830	COCCOCC(=O)Nc1cc(-c2ccccc2-c2nnn[nH]2)ccc1N(CC(C)C)CC(C)C [Example 41]
500	CC(C)CN(CC(C)C)c1ccc(-c2ccccc2-c2nnn[nH]2)cc1NC(=O)COc1cccnc1 [Example 42]
5.09	CC(C)CN(CC(C)C)c1ccc(-c2ccccc2-c2nnn[nH]2)cc1NC(=O)Cc1ccc(C#N)cc1 [Example 43]
80	CC(C)CN(CC(C)C)c1ccc(-c2ccccc2-c2nnn[nH]2)cc1NC(=O)Cc1cncc(Br)c1 [Example 44]
470	CC(C)CN(Cc1ccccc1)c1ccc(-c2ccccc2-c2nnn[nH]2)cc1NC(=O)CC(C)(C)C [Example 47, N-(4-(Benzyl(isobutyl)amino)-2′-(2H-tetrazol-5-yl)biphenyl-3-yl)-3,3-dimethylbutanamide]
1610	CC(C)CN(Cc1ccccc1)c1ccc(-c2ccccc2-c2nnn[nH]2)cc1NC(=O)[C@H](O)c1ccccc1 [Example 48, (R)—N-(4-(Benzyl(isobutyl)amino)-2′-(1H-tetrazol-5-yl)biphenyl-3-yl)-2-hydroxy-2-phenylacetamide]

SMILES	IC50 [nM]
CC(C)CN(CC(C)C)c1ccc(-c2ccccc2-c2nnn[nH]2)cc1NC(=O)Oc1ccc(Cl)cc1 [Example 45, 4-Chlorophenyl (4-(diisobutylamino)-2′-(1H-tetrazol-5-yl)-[1,1′-biphenyl]-3-yl)carbamate]	3900
Cc1ccc(CC(=O)Nc2cc(-c3ccccc3-c3nnn[nH]3)ccc2-n2cccn2)cc1 [Example 46, 2-(4-methylphenyl)-N-[2-(1H-pyrazol-1-yl)-5-[2-(1H-1,2,3,4-tetrazol-5-yl)phenyl]phenyl]acetamide]	230
COc1ccc(OC(=O)Nc2cc(-c3ccccc3-c3nnn[nH]3)ccc2N(CC(C)C)CC(C)C)cc1 [Example 50, 4-methoxyphenyl (4-(diisobutylamino)-2′-(1H-tetrazol-5-yl)-[1,1′-biphenyl]-3-yl)carbamate]	120
CC(C)CN(CC(C)C)c1ccc(-c2ccccc2-c2nnn[nH]2)cc1NC(=O)Oc1ccc2c(c1)OCO2 [Example 51, benzo[d][1,3]dioxol-5-yl (4-(diisobutylamino)-2′-(1H-tetrazol-5-yl)-[1,1′-biphenyl]-3-yl) carbamate]	3910
COc1ccc(OC(=O)Nc2cc(-c3ccccc3-c3nnn[nH]3)ccc2N(CC(C)C)CC(C)C)cc1F [Example 52, 3-fluoro-4-methoxyphenyl (4-(diisobutylamino)-2′-(1H-tetrazol-5-yl)-[1,1′-biphenyl]-3-yl) carbamate]	6560
CC(C)CN(CC(C)C)c1ccc(-c2ccccc2-c2nnn[nH]2)cc1NC(=O)Oc1ccc(OCc2ccccc2)cc1 [Example 53, 4-(benzyloxy)phenyl (4-(diisobutylamino)-2′-(1H-tetrazol-5-yl)-[1,1′-biphenyl]-3-yl)carbamate]	3250
